From patent US20120177606A1, “LACTIC ACID BACTERIUM FOR INHIBITING PRODUCTION OF GASTRIC ACID AND GASTRIN” (SNOWDEN KABUSHIKIKAISHA, priority 2011, published 2012)
“Also recorded” adds a separate entry of the source.

Test system: gastrin production
Experiment: Side effects of continuous PPI administration (stomach weight ratio, gastrin-positive cells) and alleviation by lived No. 1088
Assay type: in vivo
Conditions: PBS-administered mice, Omeprazole 200 μg subcutaneously every other day for 4 or 8 weeks, vs no PPI
Method: Six groups of mice were prepared, each containing five 4-week old GF-Balb/c male mice. Three of the groups were administered orally with a suspension prepared by suspending 1×10^9 CFU of lived No. 1088 in PBS, and the remaining three groups were administered orally with an equal volume of PBS.
When the mice reached 8 weeks of age, a treatment was started for one group of the No. 1088-administered mice and one group of the PBS-administered mice in which the mice were administered subcutaneously every other day with a solution prepared by dissolving 200 μg of the PPI Omeprazole (AstraZeneca Ltd.) in 200 μL of PBS (8 weeks of continuous PPI administration). […]
Upon reaching 16 weeks of age, the mice of each group were killed, and following measurement of the bodyweight, the stomach was extracted from each mouse, the stomach contents (feed and the like) were removed by washing with PBS, and the stomach weight was measured. […]
The stained tissue sections were subjected to observation and image capture using a fluorescence microscope BZ-9000. […]
Using the bodyweights and stomach weights measured upon extraction of the stomachs from the samples of each group, the ratio (%) of stomach weight to bodyweight was calculated for each group. […]

Structure (SMILES): COc1ccc2[nH]c([S+]([O-])Cc3ncc(C)c(OC)c3C)nc2c1 (centres unmarked) [PPI, Omeprazole]
- number of gastrin-producing cells: increased; also recorded: significant increases
- stomach weight ratio (stomach weight to bodyweight): significant increases
